Results reported in BindingDB's records for patent US20240199630 (CNIO, 2024).

molecular target: Serine/threonine-protein kinase pim-1 (Homo sapiens, UniProt P11309)
Sequence (P11309 whole entry): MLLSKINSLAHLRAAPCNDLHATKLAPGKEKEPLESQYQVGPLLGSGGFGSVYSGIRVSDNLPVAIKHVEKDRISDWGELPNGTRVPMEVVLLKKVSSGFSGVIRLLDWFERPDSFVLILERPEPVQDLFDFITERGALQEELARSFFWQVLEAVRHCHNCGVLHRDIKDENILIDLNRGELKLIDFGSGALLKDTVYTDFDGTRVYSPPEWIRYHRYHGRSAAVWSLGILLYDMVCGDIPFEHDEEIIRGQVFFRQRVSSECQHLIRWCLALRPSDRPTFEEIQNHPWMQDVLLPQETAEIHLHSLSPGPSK

SMILES	IC50 [nM]
CN(CC1CCNCC1)c1nn2c(-c3ccnc(C(F)(F)F)c3)cnc2c2c1N(C)CCO2 [US20240199630, Compound T4.1]	0.9
CNCC1CCN(c2nn3c(-c4ccnc(C(F)(F)F)c4)cnc3c3c2N(C)CCO3)CC1 [US20240199630, Compound T4.2]	5.5
CN1CCOc2c1c(N1CCC3(CCCNC3)CC1)nn1c(-c3ccnc(C(F)(F)F)c3)cnc21 [US20240199630, Compound T4.6]	8.3

Continued, values first:

IC50 [nM]	SMILES
1.1	CN1CCOc2c1c(N1CCCC3(CCNCC3)C1)nn1c(-c3ccnc(C(F)(F)F)c3)cnc21 [US20240199630, Compound T4.7]
2	CN1CCOc2c1c(NC1CC3(CCNCC3)C1)nn1c(-c3ccnc(C(F)(F)F)c3)cnc21 [US20240199630, Compound T4.8]
0.8	CN1CCOc2c1c(N1CCC3(CC1)CC(N)C3)nn1c(-c3ccnc(C(F)(F)F)c3)cnc21 [US20240199630, Compound T4.9]
